The record followed here is ChEMBL document CHEMBL1143675, “Triterpenoids from Schisandra rubriflora” (J Nat Prod, 2007).

By CC50 is commonly meant the concentration that lowers cell viability or growth by half. High values mean better tolerance by the cells, low ones harm at low concentration. In general, EC50 refers to the concentration needed to bring the measured effect to its halfway point.

Molecules are shown by their SMILES. In brackets after ≈: the same amount, converted by molar mass. Where only a bound is given, the exact number is not on record here.

Data set [1] in a line: Cytotoxicity against C8166 cells after 72 hrs by MTT method. Type of data set: cell-based. The settings on record: human.
In data set [2] the test system is Human immunodeficiency virus 1. Put plainly: Antiviral activity against HIV1 3B in C8166 cells. It counts as functional, organism-based. The settings on record: Human immunodeficiency virus 1, 3B.

For the molecule `CCOC(=O)C[C@H]1OC(C)(C)C2=C1C[C@]13CC[C@]4(C)C(=O)[C@@H](C)[C@@H]5[C@H]6OC(=O)[C@@H](C)[C@H]6O[C@@](O1)(C(=O)C3=CC2=O)[C@@H]54` [RUBRIFLORIN C], the 50% cytotoxic concentration (CC50) at 72 h in data set [1] was greater than 200 µg/mL. This molecule had an EC50 in data set [2] of 81.3 µg/mL (≈ 143 µM).

`COC(=O)C[C@H]1OC(C)(C)C2=C1C[C@]13CC[C@]4(C)C(=O)[C@@H](C)[C@@H]5[C@H]6OC(=O)[C@@H](C)[C@H]6O[C@@](O1)(C(=O)C3=CC2=O)[C@@H]54` [RUBRIFLORIN B] came in with a CC50 at 72 h in data set [1] of 100 µg/mL (≈ 181 µM). The molecule further came in with an EC50 in data set [2] of 16.2 µg/mL (≈ 29.2 µM).

Take `Cc1cn([C@H]2C[C@H](N=[N+]=[N-])[C@@H](CO)O2)c(=O)[nH]c1=O` [ZIDOVUDINE]: the CC50 at 72 h in data set [1] is greater than 200 µg/mL. In data set [2], this molecule gave an EC50 of 0.0043 µg/mL (≈ 0.0161 µM).

`COC(=O)C[C@H]1OC(C)(C)[C@@H]2C[C@H]3O[C@@]12C[C@]12CC[C@]4(C)C(=O)[C@@H](C)[C@@H]5[C@H]6OC(=O)[C@@H](C)[C@H]6O[C@@](O1)(C(=O)[C@H]32)[C@@H]54` [RUBRIFLORIN A] registered a CC50 at 72 h in data set [1] of 89.1 µg/mL (≈ 159 µM). For the same molecule, in data set [2], the concentration for a half-maximal effect (EC50) was determined as 10 µg/mL (≈ 17.9 µM).
